In PubChem BioAssay AID1963447 (Molecular Pharmacology Branch, DTP, NCI, 2024):
pIC50: −log10 of the molar value.

Test system: 885512-296-R-J2-PDC complex spheroid growth, % test/control
Test: Anticancer human tumor 885512-296-R-J2-PDC patient-derived breast carcinoma cell line growth inhibition [Asc]
Conditions: for pIC50: curve of first compound; for viability, T/C: stronger effect = lower value; active = viability on the fitted dose curve at most 10% of control; inactive = the rest
In short: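 Complex solid-tumor spheroids incorporating human endothelial and mesenchymal stem cells received single agents or combinations over half-log dilution ranges anchored to clinical Cmax.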
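Note: spheroids exposed to compounds for seven days.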
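Throughout, for viability, T/C: 100% = DMSO vehicle control wells.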

NC(=O)C(=Cn1cnc(-c2cc(C(F)(F)F)cc(C(F)(F)F)c2)n1)c1cncnc1 + Cc1c(S(C)(=O)=O)c(-c2cc(F)cc(N3CCN(c4ccc(NS(=O)(=O)c5ccc(NC(CCN6CCC(C(=O)OCCCP(=O)(O)O)CC6)CSc6ccccc6)c(S(=O)(=O)C(F)(F)F)c5)cc4)CC3)c2)c(-c2ccc(Cl)cc2)n1C(C)C
active: viability, T/C (second compound 0.1 µM, first compound 0.0949 µM) 4.49% | viability, T/C (second compound 0.1 µM, first compound 0.3 µM) 0.26% | viability, T/C (second compound 0.316 µM, first compound 0.0949 µM) 4.42% | viability, T/C (second compound 0.316 µM, first compound 0.3 µM) 3.46% | viability, T/C (second compound 1 µM, first compound 0.0949 µM) 3.77% | viability, T/C (second compound 1 µM, first compound 0.3 µM) 0.23% | viability, T/C (second compound 3.16 µM, first compound 0.0949 µM) 4.78% | viability, T/C (second compound 3.16 µM, first compound 0.3 µM) 0.2% | viability, T/C (second compound 10 µM, first compound 0.0949 µM) 2.71% | viability, T/C (second compound 10 µM, first compound 0.3 µM) 0.25%
inactive: viability, T/C (second compound 0.1 µM, first compound 0.000949 µM) 92.8% | viability, T/C (second compound 0.1 µM, first compound 0.003 µM) 74.5% | viability, T/C (second compound 0.1 µM, first compound 0.00949 µM) 81.9% | viability, T/C (second compound 0.1 µM, first compound 0.03 µM) 65.5% | viability, T/C (second compound 0.316 µM, first compound 0.000949 µM) 75.8% | viability, T/C (second compound 0.316 µM, first compound 0.003 µM) 102% | viability, T/C (second compound 0.316 µM, first compound 0.00949 µM) 83% | viability, T/C (second compound 0.316 µM, first compound 0.03 µM) 63.3% | viability, T/C (second compound 1 µM, first compound 0.000949 µM) 68.8% | viability, T/C (second compound 1 µM, first compound 0.003 µM) 89.2% | viability, T/C (second compound 1 µM, first compound 0.00949 µM) 102% | viability, T/C (second compound 1 µM, first compound 0.03 µM) 64.4% | viability, T/C (second compound 3.16 µM, first compound 0.000949 µM) 92.9% | viability, T/C (second compound 3.16 µM, first compound 0.003 µM) 88.1% | viability, T/C (second compound 3.16 µM, first compound 0.00949 µM) 105% | viability, T/C (second compound 3.16 µM, first compound 0.03 µM) 67.9% | viability, T/C (second compound 10 µM, first compound 0.000949 µM) 117% | viability, T/C (second compound 10 µM, first compound 0.003 µM) 105% | viability, T/C (second compound 10 µM, first compound 0.00949 µM) 89.7% | viability, T/C (second compound 10 µM, first compound 0.03 µM) 78%
7.34: pIC50 (second compound 10 µM)
7.41: pIC50 (second compound 0.316 µM) | pIC50 (second compound 1 µM)
7.38: pIC50 (second compound 3.16 µM)
7.40: pIC50 (second compound 0.1 µM)

NC1CCC(NC2CC2c2ccccc2)CC1 (stereo not given) + Cc1c(S(C)(=O)=O)c(-c2cc(F)cc(N3CCN(c4ccc(NS(=O)(=O)c5ccc(NC(CCN6CCC(C(=O)OCCCP(=O)(O)O)CC6)CSc6ccccc6)c(S(=O)(=O)C(F)(F)F)c5)cc4)CC3)c2)c(-c2ccc(Cl)cc2)n1C(C)C
inactive: viability, T/C (second compound 0.1 µM, first compound 0.000316 µM) 124% | viability, T/C (second compound 0.1 µM, first compound 0.001 µM) 127% | viability, T/C (second compound 0.1 µM, first compound 0.00316 µM) 122% | viability, T/C (second compound 0.1 µM, first compound 0.01 µM) 123% | viability, T/C (second compound 0.1 µM, first compound 0.0316 µM) 123% | viability, T/C (second compound 0.1 µM, first compound 0.1 µM) 113% | viability, T/C (second compound 0.316 µM, first compound 0.000316 µM) 121% | viability, T/C (second compound 0.316 µM, first compound 0.001 µM) 126% | viability, T/C (second compound 0.316 µM, first compound 0.00316 µM) 118% | viability, T/C (second compound 0.316 µM, first compound 0.01 µM) 108% | viability, T/C (second compound 0.316 µM, first compound 0.0316 µM) 127% | viability, T/C (second compound 0.316 µM, first compound 0.1 µM) 122% | viability, T/C (second compound 1 µM, first compound 0.000316 µM) 109% | viability, T/C (second compound 1 µM, first compound 0.001 µM) 115% | viability, T/C (second compound 1 µM, first compound 0.00316 µM) 122% | viability, T/C (second compound 1 µM, first compound 0.01 µM) 116% | viability, T/C (second compound 1 µM, first compound 0.0316 µM) 123% | viability, T/C (second compound 1 µM, first compound 0.1 µM) 121% | viability, T/C (second compound 3.16 µM, first compound 0.000316 µM) 112% | viability, T/C (second compound 3.16 µM, first compound 0.001 µM) 116% | viability, T/C (second compound 3.16 µM, first compound 0.00316 µM) 116% | viability, T/C (second compound 3.16 µM, first compound 0.01 µM) 111% | viability, T/C (second compound 3.16 µM, first compound 0.0316 µM) 113% | viability, T/C (second compound 3.16 µM, first compound 0.1 µM) 120% | viability, T/C (second compound 10 µM, first compound 0.000316 µM) 122% | viability, T/C (second compound 10 µM, first compound 0.001 µM) 104% | viability, T/C (second compound 10 µM, first compound 0.00316 µM) 99.5% | viability, T/C (second compound 10 µM, first compound 0.01 µM) 121% | viability, T/C (second compound 10 µM, first compound 0.0316 µM) 111% | viability, T/C (second compound 10 µM, first compound 0.1 µM) 118%
< 7.00: pIC50 (second compound 0.1 µM) | pIC50 (second compound 0.316 µM) | pIC50 (second compound 1 µM) | pIC50 (second compound 3.16 µM) | pIC50 (second compound 10 µM)
